# Reference: patent publication US9577283B2, “Energy storage battery” (NISSIN ELECTRIC CO., LTD., priority 2012, dated 2017)
# Assay: attempt to prepare 0.2 mol/L aqueous solution of Mn(II) complex (deposition of manganese compound)
# Assay type: physicochemical
# Settings: target concentration 0.2 mol/L, metal:ligand 1:1, pH 7, with Na2SO4
# From the text: Accordingly, it was known that if malonic acid as a polycarboxylic acid is used instead of polyethyleneimine, it is impossible to prepare a cathode electrolyte containing a Mn(II) complex in a sufficient concentration.
# Accordingly, it was known that if succinic acid as a polycarboxylic acid is used instead of polyethyleneimine, it is impossible to prepare a cathode electrolyte containing a Mn(II) complex at a sufficient concentration.
# Accordingly, it was known that if ethylenediamine is used instead of polyethyleneimine, it is impossible to prepare a cathode electrolyte containing a Mn(II) complex at a sufficient concentration.
# Meanwhile, the cathode electrolyte was prepared as follows. Firstly, 0.1 mol (6.0 g) of ethylenediamine was added to and dissolved in 70 ml of distilled water.
substance,measurement,value
Mn(II)-malonic acid complex,deposition of manganese compound on preparing aqueous solution,manganese compound is immediately deposited
